Molecular target: T1, Fermitin family homolog 2 (Homo sapiens) (UniProt Q96AC1)
T1 sequence (whole entry): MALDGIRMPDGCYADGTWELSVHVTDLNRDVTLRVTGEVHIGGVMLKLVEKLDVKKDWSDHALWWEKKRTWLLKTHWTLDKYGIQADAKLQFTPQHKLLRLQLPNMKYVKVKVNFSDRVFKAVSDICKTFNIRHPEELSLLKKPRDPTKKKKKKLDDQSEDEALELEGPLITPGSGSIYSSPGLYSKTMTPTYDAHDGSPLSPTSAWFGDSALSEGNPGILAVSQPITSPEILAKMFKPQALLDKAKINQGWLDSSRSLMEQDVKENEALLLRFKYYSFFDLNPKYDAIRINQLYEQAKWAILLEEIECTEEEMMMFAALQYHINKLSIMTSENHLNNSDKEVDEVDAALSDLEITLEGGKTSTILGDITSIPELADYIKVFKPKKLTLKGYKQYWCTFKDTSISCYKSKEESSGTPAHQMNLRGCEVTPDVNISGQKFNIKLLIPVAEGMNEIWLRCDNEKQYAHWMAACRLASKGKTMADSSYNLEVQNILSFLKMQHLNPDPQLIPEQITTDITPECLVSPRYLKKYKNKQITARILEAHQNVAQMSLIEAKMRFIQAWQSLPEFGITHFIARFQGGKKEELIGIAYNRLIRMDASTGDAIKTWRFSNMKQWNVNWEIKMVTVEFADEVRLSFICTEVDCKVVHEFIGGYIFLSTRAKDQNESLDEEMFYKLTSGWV
Description: Binding affinity to His6-tagged KIND2 (unknown origin) expressed in Escherichia coli BL21(DE3) assessed as change in melting temperature by DSF analysis

ΔTm: 0 °C
Structure (SMILES): NCCNc1ccnc2cc(OCc3ccccc3)ccc12

From ChEMBL document CHEMBL5375976, “Discovery of Inhibitory Fragments That Selectively Target Spire2-FMN2 Interaction” (J Med Chem, 2023)
